Target: T1, Squalene synthase (Rattus norvegicus) (UniProt Q02769)
T1 sequence (whole entry): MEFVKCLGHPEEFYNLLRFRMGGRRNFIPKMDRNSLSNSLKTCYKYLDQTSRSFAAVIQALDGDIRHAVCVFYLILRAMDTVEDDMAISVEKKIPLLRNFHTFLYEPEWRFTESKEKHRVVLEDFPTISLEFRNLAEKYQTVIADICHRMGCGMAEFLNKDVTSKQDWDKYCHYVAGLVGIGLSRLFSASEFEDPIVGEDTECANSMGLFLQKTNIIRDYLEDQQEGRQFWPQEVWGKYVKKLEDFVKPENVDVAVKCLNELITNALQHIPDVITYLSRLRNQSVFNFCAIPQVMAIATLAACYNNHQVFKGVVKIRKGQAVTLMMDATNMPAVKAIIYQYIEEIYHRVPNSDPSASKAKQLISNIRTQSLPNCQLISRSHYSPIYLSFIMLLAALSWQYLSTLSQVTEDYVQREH
Experiment: Inhibitory activity against squalene synthase in rat liver squalene synthase (RLSS) enzyme assay

| Activity [nM] | SMILES |
| --- | --- |
| 200 | CC(=O)O[C@H](CCOC(=O)C[C@@H](OC(=O)CCCCCCCCCCOc1ccccc1)C(=O)O[C@H](CC(=O)O)C(=O)O)[C@H](C)Cc1ccccc1 |
| 200 | CC(=O)O[C@H](CCCOC(=O)C[C@@H](OC(=O)CCCCCCCCCCOc1ccccc1)C(=O)OC(C(=O)O)C(=O)O)[C@H](C)Cc1ccccc1 |

Second part, the compound before the results:

| SMILES | Activity [nM] |
| --- | --- |
| CC[C@H](C)C[C@H](C)/C=C/C(=O)O[C@H](CC(=O)OCCC[C@@H](OC(C)=O)[C@H](C)Cc1ccccc1)C(=O)O[C@H](CC(=O)O)C(=O)O | 470 |
| CC(=O)O[C@H](CCCOC(=O)C[C@@H](OC(=O)CCCCCCCCCCOc1ccccc1)C(=O)N1CCC[C@H]1C(=O)O)[C@H](C)Cc1ccccc1 | > 3000 |
| C=C(CCC12OC(C(=O)O)C(O)(C(=O)O)C(C(=O)O)(O1)[C@H](OC(=O)/C=C/[C@@H](C)C[C@@H](C)CC)[C@H]2O)[C@@H](OC(C)=O)[C@H](C)Cc1ccccc1 (some centres not stated) | 0.35 |
| CC(=O)O[C@H](CCCOC(=O)C(OC(=O)CCCCCCCCCCOc1ccccc1)C(=O)O[C@H](CC(=O)O)C(=O)O)[C@H](C)Cc1ccccc1 (some centres not stated) | > 3000 |
| CC[C@H](C)C[C@H](C)/C=C/C(=O)O[C@H](CC(=O)OCCC[C@@H](OC(=O)C(F)(F)F)[C@H](C)Cc1ccccc1)C(=O)O[C@@H](C(=O)O)[C@@H](O)C(=O)O | 300 |

From ChEMBL document CHEMBL1127923, “Design and synthesis of squalene synthase inhibitors - acylic mimics of the zaragazic acids” (Bioorg Med Chem Lett, 1994)
